Assay results from patent US8968703B2, “13C-MR detection using hyperpolarised 13C-fructose” (GE Healthcare Limited, priority 2009, dated 2015).

Experiments:
[1] = system: hexokinase; experiment: NMR study of enzymatic conversion of hyperpolarized fructose to fructose-6-phosphate; assay type: biochemical; conditions: 400 U hexokinase
Procedure: For NMR studies of the enzymatic conversion of Fructose to fructose-6-phosphate, hyperpolarized [2-^13C]-fructose was reacted with 400 U of hexokinase (Sigma Aldrich) in the presence of 15 mM ATP, 50 mM TRIS and 13 mM MgCl2. The labelling and mechanism for transport and metabolism is shown below (FIG. 1), though in this enzymatic study the transport element has been removed and the enzyme activity was independently measured. Peaks corresponding to fructose-6-phosphate were identified using a natural abundance carbon spectrum, using a similar set of experimental parameters.

[2] = 3T T1 studies of hyperpolarized [2-13C]-fructose in solution; assay type: physicochemical; conditions: for T1 sec (3T): C2 fructose carbon, solution spectra, monoexponential fit
Procedure: T1 studies were performed using a 3T GE Signa™ scanner (GE Healthcare. Waukesha, Wis.) equipped with the MNS (multinuclear spectroscopy) hardware package. Solution spectra were acquired using a 5° non localised pulse, TR=3 s and fit to a monoexponential. The RF coil used in these experiments was a dual-tuned ^1H-^13C coil with a quadrature ^13C channel and linear ^1H channel construction based on an earlier design and also used in ^13C-pyruvate mouse imaging studies. For animal studies, T2-weighted fast spin echo images were acquired prior to MRSI studies to denote anatomy and place voxels on the region of interest. In vivo MRSI studies were carried out using a compressed sensing double spin 3D MRSI acquisition scheme as previously published by Hu S et al. (2008) Compressed sensing for resolution enhancement of hyperpolarized 13C flyback 3D-MRSI. J Magn Reson 192, 258-264, with a TE=140 ms. TR=215 ms, FOV=8 cm×8 cm, and 16×8 resolution. 500 μl of 80 mM [2-^13C]-fructose was injected similar to described by Albers M J et al. (2008) Hyperpolarized 13C lactate, pyruvate and alanine: noninvasice biomarkers for prostate cancer detection and grading. Cancer Res. 68, 8607-8615, for [1-^13C] pyruvate in a transgenic model of prostate cancer (TRAMP). These injections were compared to the standard [1-^13C]-pyruvate injection for the same voxel in a tumor region of interest.

[3] = 11.7T NMR studies of hyperpolarized [2-13C]-fructose (T1, percent polarization); assay type: physicochemical; conditions: for T1 sec (11.7T): C2 fructose carbon, mono-exponential fit of hyperpolarized signal decay; for % pol (corrected): percent polarization corrected for transfer time using T1 decay
Procedure: A 4.0M solution of 2-[^13C]-fructose (Isotec, Miamisburg, Ohio) in water containing 15 mM OX063 trityl radical (Oxford Instruments) was hyperpolarized on a Hypersense instrument (Oxford Instruments) as described by Ardenkjaer-Larsen et al (2003) Increase in signal-to-noise ratio of >10,000 times in liquid-state NMR. Proc. Natl. Acad. Sci. U.S.A. 100, 10158-10163. The frozen sample was dissolved in 1× phosphate buffered saline (PBS), with a resultant pH of 7.6, and transferred immediately to a 10 mm NMR tube.
NMR studies were performed on an 11.7T Varian INOVA spectrometer (125 MHz ^13C, Varian Instruments) using a 10 mm ^15N/[…]/^13C triple-tuned direct detect probe. Initially, a thermal spectrum was acquired for a natural abundance fructose sample in 1×PBS buffer at 37° C. (nt=9000, sw=30000, np=30000, TR=3.5 s, acq time=0.5 s) using an Ernst angle pulse (45 degrees). […] The C2 carbon resonances correspond to the isomeric distribution of the two ring forms (pyranose and furanose forms) of the fructose molecule.
For the acquisition of hyperpolarized ^13C spectra […] pulse hyperpolarized ^13C NMR spectra (1 average, spectral window=30000 Hz, number of points=30000, TR=3.5 s, acq time=0.5 s, total acq time=2 min 55 s) were acquired using a 5° pulse and proton decoupled using a waltz-16 decoupling scheme. Hyperpolarized studies were followed by acquisition of thermal data using nearly identical parameters, using a 90° tip angle and a repeat time of roughly four T1's (TR=76 s, nt=64). T1's were determined by performing a mono-exponential fit to the signal decay curve of the hyperpolarized compounds. Signal enhancement percent polarizations were calculated by comparing the hyperpolarized and thermal data sets and accounting for differences in tip angle and transients obtained. Solid state polarizations were calculated by correcting the enhancement for the transfer time from the polarizer using the T1 decay.

[4] = as above; assay type: physicochemical; conditions: pH ranges 5.9-7.8

## O=[13C](CO)[C@@H](O)[C@H](O)[C@H](O)CO [fructose, [2-^13C]-fructose]
[1]; 15 mM ATP, 50 mM TRIS, 13 mM MgCl2
  Time to conversion to fructose-6-phosphate after addition to hexokinase: ≤ 5 s
[1]; thermal spectrum acquired over 85 minutes post DNP
  Conversion of fructose to fructose-6-phosphate in thermal spectrum: fully converted
[2]; at 3T
  Relaxation times (T1): 13 to 14 s
[3]; at 11.7 T
  Relaxation times (T1): 15 to 16 s
[3]; averages for the isomers of fructose
  Percent polarization, average over isomers: ~12%
[3]; in solution
  Isomeric ratio of fructose pyranose to furanose in solution: approximately 77/23
[4]
  T1 dependence on pH: no T1 dependence on pH

## OC[C@H]1O[C@@](O)(CO)[C@@H](O)[C@@H]1O [A-fructofuranose]
[2]
  T1 sec (3T): 13.4 ± 0.4 s
[3]
  T1 sec (11.7T): 15.5 ± 0.5 s
  % pol (corrected): 11.8 ± 2.0%

## OC[C@@]1(O)OC[C@@H](O)[C@@H](O)[C@@H]1O [β-fructopyranose]
[2]
  T1 sec (3T): 14.5 ± 0.3 s
[3]
  T1 sec (11.7T): 16.3 ± 0.5 s
  % pol (corrected): 12.0 ± 2.2%

## OC[C@H]1O[C@](O)(CO)[C@@H](O)[C@@H]1O [β-fructofuranose]
[2]
  T1 sec (3T): 13.4 ± 2.5 s
[3]
  T1 sec (11.7T): 15.8 ± 0.5 s
  % pol (corrected): 11.6 ± 2.5%
